From patent publication US20070116823A1, “HIGH-POTENCY SWEETENER FOR HYDRATION AND SWEETENED HYDRATION COMPOSITION” (THE COCA-COLA COMPANY, priority 2005, published 2007) come the findings set out here.

For data set [1], the system named is panel of experts in the sensory evaluation of foods and beverages. Nature of the data set: Sensory evaluation of sweetness linger by expert panel. In kind it is in vivo. To be noted: for Sweetness linger rating / Sweetness linger: scale 0=no to 5=high sweetness linger; for Sweetness Linger rating as defined by the protocol: reference points of the scale, REBA control sample 500 ppm. How it is done:
Sensory evaluation of the samples prepared in Example Set G was carried out under the following protocol, similar to that described hereinabove. In this test protocol, none of the samples were swallowed. All samples were expectorated and the mouth was rinsed with water after the tasting. Immediately upon sensing maximal sweetness, the sample was expectorated, the mouth was rinsed with water and the rate of sweetness decay (“Sweetness Linger”) was measured, where attention was focused on the sweetness 3-4 min after the water rinse. After sample tasting was complete, a salty oyster cracker was chewed followed by a water rinse, and at least 5 minutes followed before tasting the next sample. The sweetness linger was rated by a panel of experts in the sensory evaluation of foods and beverages using the following scale: 0=no sweetness linger, 1=very slight sweetness linger, 2=slight sweetness linger, 3=moderate sweetness linger, 4=moderately high sweetness linger, 5=high sweetness linger.
The “Sweetness Linger” rating for sucrose observed by this protocol is defined as 0. The Sweetness Linger of a 500 ppm of REBA control sample is defined as 5. Experimental samples were tasted by the same protocol, always allowing sufficient time between samples to ensure re-equilibration of the sensory system. Re-tasting of control samples during the course of the experiment was allowed and encouraged.
The comparison taste test was performed between two controls and addition of sweet taste improving additive on the onset and/or sweetness linger.
Sweet taste improving compositions were combined with a REBA solution to determine their effect on sweetness linger. Screening of the initial sample, or further dilutions, allowed identification of concentrations which were just above-threshold, herein defined as “near-threshold concentrations.” The near-threshold additive concentrations, a 6- to 100-fold higher higher additive concentration (depending on the off-taste intensity), and a mid-level additive concentration (halfway between the near-threshold and higher additive concentration) were evaluated to determine the effect on sweetness linger of a REBA solution.
Formulations of a 500 ppm REBA in a phosphoric acid solution (75%) at a pH of 2.5 with phosphoric acid or a pH of 3.1 with citric acid and potassium citrate were prepared prior to the addition of the additives at the three levels of concentration.
\Sensory evaluation using the protocol described in Example Set C then was used to evaluate the sweetness linger of the REBA solutions.

The nature of data set [2]: Rate of dissolution of rebaudioside A forms in H2O at 25° C. In kind it is physicochemical. Particulars: in words.

With `OC[C@H]1O[C@@](CO)(O[C@H]2O[C@H](CO)[C@@H](O)[C@H](O)[C@H]2O)[C@@H](O)[C@@H]1O` [sucrose], the Sweetness linger rating in data set [1] (Set G control: 8 g of sugar in 100 ml of citrate buffer) was found to be 0; in data set [1] (Set H control: 10 g of sugar in 100 ml carbon treated water, phosphoric acid to pH 2.4-2.5), 0. For the same compound, in data set [1], the “Sweetness Linger rating as defined by the protocol” value was determined as 0.

For rebaudioside A, the Sweetness linger is 5 in data set [1] (Example Set G: 400 ppm REBA in citric acid/potassium citrate composition equivalent to diet lemon-lime beverage, with or without additive) and 5 in data set [1] (Example Set H: REBA in carbon-treated water, phosphoric acid (75%) to pH 2.4-2.5, with or without additive). Also, the “Sweetness Linger rating as defined by the protocol” value in data set [1] was 5.

In the case of rebaudioside A [Form 1], the “Rate of dissolution in H2O at 25° C.” value in data set [2] was “Very low”.

On to rebaudioside A [Form 2], for which, in data set [2], the “Rate of dissolution in H2O at 25° C.” value is on record as “Intermediate”.

As for rebaudioside A [Form 3], the “Rate of dissolution in H2O at 25° C.” value in data set [2] is reported as “High”.

In the case of rebaudioside A [Form 4], in data set [2], the “Rate of dissolution in H2O at 25° C.” value was “High”.
